Measurements reported in publication PMC6792352, “Limited Chemical Structural Diversity Found to Modulate Thyroid Hormone Receptor in the Tox21 Chemical Library” (Environmental Health Perspectives, 2019).
Where a name gives a salt, the structure may show the parent alone.

Experiment: in vitro
Settings: rat, gh3-tre-luc cells, AC50 (uM) modified / 1000

| SMILES | CC50 at 24 h [µM] |
| --- | --- |
| OC(CCN1CCCCC1)(c1ccccc1)c1ccccc1 [Pridinol] | 25.8 |
| N#Cc1ccccn1 [2-Pyridinecarbonitrile] | > 100 |
| NS(=O)(=O)c1cc(Cl)c(Cl)c(S(N)(=O)=O)c1 [Dichlorphenamide] | > 20 |
| CCC1(c2ccccc2)C(=O)NC(=O)N(C(=O)c2ccccc2)C1=O (centres unmarked) [Benzobarbital] | > 50 |
| O=C(O)COc1ccc2ccccc2c1 [2-Naphthoxyacetic acid] | > 90 |
| BrCc1cccc(Oc2ccccc2)c1 [1-(Bromomethyl)-3-phenoxybenzene] | > 90 |
| Cc1ncc(CO)c(CO)c1O [Pyridoxine] | > 50 |
| C=CC(=C)CCC=C(C)C [Myrcene] | > 90 |
| CC1(C)S[C@@H]2[C@H](NC(=O)[C@H](NC(=O)N3CCNC3=O)c3ccccc3)C(=O)N2[C@H]1C(=O)O [Azlocillin sodium] | > 20 |
| CC[C@]12CCCN3CCc4c(n(c5ccccc45)[C@@](O)(C(=O)OC)C1)[C@@H]32 [Vincamine] | 65.8 |
| CC(C)CCCCCCCOC(=O)c1ccc(C(=O)OCCCCCCCC(C)C)c(C(=O)OCCCCCCCC(C)C)c1 [Triisodecyl trimellitate] | > 80 |
| CC(N/C(=N\C#N)Nc1ccncc1)C(C)(C)C (centres unmarked) [Pinacidil monohydrate] | > 50 |
| OC(CCCN1CCCCC1)(c1ccccc1)c1ccccc1 [Diphenidol] | > 50 |
| O=Cc1ccco1 [Furfural] | > 90 |
| NC(CCC(=O)O)C(=O)O (racemic) [DL-Glutamic acid monohydrate] | > 80 |
| C=CC(C)(O)CCCC(C)CCCC(C)CCCC(C)C (centres unmarked) [Isophytol] | > 90 |
| COc1cc2c(cc1OC)-c1c/c(=N\c3c(C)cc(C)cc3C)n(C)c(=O)n1CC2 [Trequinsin hydrochloride] | 20.3 |
| N#CCCSCCC#N [3,3'-Thiodipropionitrile] | > 90 |
| CC(C)OC(C)C [Isopropyl ether] | > 100 |
| Cc1occc1S [2-Methyl-3-furanthiol] | > 90 |
| CN1C(=O)C[C@@H](C(=O)N[C@@H](Cc2c[nH]cn2)C(=O)N2CCC[C@H]2C(N)=O)NC1=O [Taltirelin] | > 50 |
| CC(CO)CO [2-Methylpropane-1,3-diol] | > 100 |

| SMILES | CC50 at 24 h [µM] |
| --- | --- |
| CC(C)(C)c1cccc(O)c1 [3-tert-Butylphenol] | > 90 |
| COc1ccc([C@]2(C#N)CC[C@@H](C(=O)O)CC2)cc1OC1CCCC1 [Cilomilast] | > 50 |
| C/N=C(\NC)NCc1ccccc1 [Bethanidine sulfate (2:1)] | > 50 |
| Cn1c(=O)c2[nH]cnc2n(C)c1=O [Theophylline] | > 90 |
| C[C@]12CCC(=O)C=C1C=C[C@@H]1[C@@H]2CC[C@@]2(C)[C@H]1CC[C@@]2(O)CCC(=O)O [Canrenoate potassium] | > 20 |
| CC(C)=CC(=O)O [3,3-Dimethylacrylic acid] | > 90 |
| CCN1CCN(C(=O)N[C@@H](C(=O)N[C@@H]2C(=O)N3C(C(=O)O)=C(CSc4nnnn4C)CS[C@H]23)c2ccc(O)cc2)C(=O)C1=O [Cefoperazone sodium] | > 50 |
| C=CCNC(N)=S [Allylthiourea] | > 90 |
| O=C(O)CCCCCCC(=O)O [Octanedioic acid] | > 90 |
| COC(=O)CC#N [Methyl cyanoacetate] | > 100 |
| COc1ccccc1OCC(O)COC(N)=O (centres unmarked) [Methocarbamol] | > 20 |
| CO[C@@H]1[C@H](OC(=O)NC(=O)CCl)CC[C@]2(CO2)[C@H]1[C@@]1(C)O[C@@H]1CC=C(C)C [o-(Chloroacetylcarbamoyl)fumagillol] | > 30 |
| CC(C)(C)C(=O)OCOC(=O)[C@@H]1N2C(=O)[C@@H](N=CN3CCCCCC3)[C@H]2SC1(C)C [Pivmecillinam hydrochloride] | > 20 |
| Clc1ccccc1-c1nc(-c2ccncc2)no1 [Pifexole] | > 50 |
| CCCCC(CC)COC(=O)c1ccc(N(C)C)cc1 (centres unmarked) [2-Ethylhexyl 4-(dimethylamino)benzoate] | > 90 |
| O=C(Nc1ccccc1)OCC(CN1CCCCC1)OC(=O)Nc1ccccc1 (centres unmarked) [Diperodon hydrochloride] | 10.5 |
| CCC(C)C(=O)OCCc1ccccc1 (centres unmarked) [2-Phenylethyl 2-methylbutanoate] | > 90 |
| CC(C)(O)C#CC(C)(C)O [2,5-Dimethyl-3-hexyne-2,5-diol] | > 90 |
| C[N+]1(C)CCCCC1 [Mepiquat chloride] | > 90 |
| CC(C)CCCCCCOC(=O)c1ccc(C(=O)OCCCCCCC(C)C)c(C(=O)OCCCCCCC(C)C)c1 [Triisononyl trimellitate] | > 90 |
| Nc1cccc([N+](=O)[O-])c1 [3-Nitroaniline] | > 90 |
| CN1CCN(CCCN2c3ccccc3Sc3ccc(S(=O)(=O)N(C)C)cc32)CC1 [Thioproperazine dimethanesulfonate] | 14.2 |

| SMILES | CC50 at 24 h [µM] |
| --- | --- |
| CC(C)C(=O)Nc1ccc([N+](=O)[O-])c(C(F)(F)F)c1 [Flutamide] | 88.9 |
| CCOc1ccc2c(c1)C(C)CC(C)(C)N2 (centres unmarked) | > 90 |
| CCN(C(=O)N(CC)c1ccccc1)c1ccccc1 [N,N'-Diethylcarbanilide] | > 90 |
| Clc1ccc(C(OCCN2CCCCC2)c2ccccc2)cc1 (centres unmarked) [Cloperastine hydrochloride] | 9.53 |
| CC(=O)OC[C@H]1O[C@@H](O[C@H]2[C@H](O)[C@@H](OC(=O)c3ccccc3C(=O)O)[C@H](O)O[C@@H]2COC(C)=O)[C@H](O)[C@@H](OC(=O)c2ccccc2C(=O)O)[C@@H]1O [Cellulose acetate phthalate] | > 50 |
| S=C1SCN(Cc2ccccc2)CN1Cc1ccccc1 [Sulbentine] | 23.1 |
| O=C(Cl)CCl [Chloroacetyl chloride] | > 90 |
| Cc1nnc(C(C)C)n1[C@@H]1C[C@H]2CC[C@@H](C1)N2CC[C@H](NC(=O)C1CCC(F)(F)CC1)c1ccccc1 [Maraviroc] | > 50 |
| C[C@H](CSC(=O)c1ccccc1)C(=O)N1C[C@@H](Sc2ccccc2)C[C@H]1C(=O)O [Zofenopril] | > 50 |
| CC[C@@H](C(=O)[C@@H](C)[C@@H](O)[C@H](C)[C@@H]1O[C@@H]([C@@H](CC)C(=O)O)CC[C@@H]1C)[C@H]1O[C@]2(C=C[C@@H](O)[C@]3(CC[C@@](C)([C@H]4CC[C@](O)(CC)[C@H](C)O4)O3)O2)[C@H](C)C[C@@H]1C [Salinomycin sodium] | 0.823 |
| ClC(Cl)(Cl)Cl [Carbon tetrachloride] | > 90 |
| C=COC(C)=O [Vinyl acetate] | > 90 |
| CN1C[C@@H]2c3ccccc3Oc3ccc(Cl)cc3[C@H]2C1 (racemic) [Asenapine] | 33.1 |
| Cc1cccc(C)c1Nc1ncccc1C(=O)O [Metanixin] | > 50 |
| c1cnc2cc3c(cc2n1)[C@@H]1CNC[C@H]3C1 [Varenicline tartrate] | > 50 |
| CCCC(=O)Nc1ncnc2c1ncn2[C@@H]1O[C@@H]2COP(=O)(O)O[C@H]2[C@H]1OC(=O)CCC [Bucladesine] | > 50 |
| CC(=O)OC1CCC(C(C)(C)C)CC1 (centres unmarked) [4-tert-Butylcyclohexyl acetate] | > 90 |
| COc1ccc(-n2nc(C(F)F)cc2-c2ccc([S+](C)[O-])cc2)cc1 (centres unmarked) [Difpas-pyrazole] | > 90 |
| CC(C)(C)c1ccc(OC(=O)c2ccccc2O)cc1 [4-tert-Butylphenyl salicylate] | > 90 |
| CC(C)(S)[C@@H](N)C(=O)O [D-Penicillamine] | > 50 |
| CCCCCCCCCOC(C)=O [Nonyl acetate] | > 90 |

Same assay, conditions: rat, gh3-tre-luc cells, AC50 (uM) modified / 1000, Tox21_110001=Tox21_111058; viability, 1 nM T3 present, 24 h

| SMILES | CC50 at 24 h [µM] |
| --- | --- |
| C[C@]12CC[C@H]3[C@@H](CCC4=CC(=O)CC[C@@]43C)[C@@H]1CC[C@H]2O [Epitestosterone] | > 50 |

Same assay, conditions: rat, gh3-tre-luc cells, AC50 (uM) modified / 1000, Tox21_110001=Tox21_111336; viability, 1 nM T3 present, 24 h

| SMILES | CC50 at 24 h [µM] |
| --- | --- |
| CC(=O)Nc1cc([As](=O)(O)O)ccc1O [Acetarsol] | > 50 |

Same assay, conditions: rat, gh3-tre-luc cells, AC50 (uM) modified / 1000, Tox21_110001=Tox21_111349; viability, 1 nM T3 present, 24 h

| SMILES | CC50 at 24 h [µM] |
| --- | --- |
| COc1cc2c(cc1OC)[C@@]13CCN4CC5=CCO[C@H]6CC(=O)N2[C@H]1[C@H]6[C@H]5C[C@H]43 [Brucine] | > 50 |

Same assay, conditions: rat, gh3-tre-luc cells, AC50 (uM) modified / 1000, Tox21_110001=Tox21_200144; viability, 1 nM T3 present, 24 h

| SMILES | CC50 at 24 h [µM] |
| --- | --- |
| Cc1ccc(N=C=O)cc1N=C=O [Toluene diisocyanate] | > 90 |

Same assay, conditions: rat, gh3-tre-luc cells, AC50 (uM) modified / 1000, Tox21_110001=Tox21_200853; viability, 1 nM T3 present, 24 h

| SMILES | CC50 at 24 h [µM] |
| --- | --- |
| Cc1cccc(C#N)c1 [3-Methylbenzonitrile] | > 90 |

Same assay, conditions: rat, gh3-tre-luc cells, AC50 (uM) modified / 1000, Tox21_110001=Tox21_200976; viability, 1 nM T3 present, 24 h

| SMILES | CC50 at 24 h [µM] |
| --- | --- |
| C#CCO [Propargyl alcohol] | > 90 |

Same assay, conditions: rat, gh3-tre-luc cells, AC50 (uM) modified / 1000, Tox21_110001=Tox21_201464; viability, 1 nM T3 present, 24 h

| SMILES | CC50 at 24 h [µM] |
| --- | --- |
| Cc1ccc([N+](=O)[O-])cc1 [4-Nitrotoluene] | > 90 |

Same assay, conditions: rat, gh3-tre-luc cells, AC50 (uM) modified / 1000, Tox21_110001=Tox21_202811; viability, 1 nM T3 present, 24 h

| SMILES | CC50 at 24 h [µM] |
| --- | --- |
| N#CNC#N [Cyanamide,cyano-,sodium salt] | > 90 |

Same assay, conditions: rat, gh3-tre-luc cells, AC50 (uM) modified / 1000, Tox21_110001=Tox21_301565; viability, 1 nM T3 present, 24 h

| SMILES | CC50 at 24 h [µM] |
| --- | --- |
| O=C1c2ccccc2C(=O)C1C(=O)C(c1ccccc1)c1ccc(Cl)cc1 (centres unmarked) [Chlorophacinone] | 42.3 |

Same assay, conditions: rat, gh3-tre-luc cells, AC50 (uM) modified / 1000, Tox21_110001=Tox21_301664; viability, 1 nM T3 present, 24 h

| SMILES | CC50 at 24 h [µM] |
| --- | --- |
| CSc1ccc(C(=O)C(C)(C)N2CCOCC2)cc1 [2-Methyl-4'-(methylthio)-2-morpholinopropiophenone] | > 90 |

Same assay, conditions: rat, gh3-tre-luc cells, AC50 (uM) modified / 1000, Tox21_110001=Tox21_301918; viability, 1 nM T3 present, 24 h

| SMILES | CC50 at 24 h [µM] |
| --- | --- |
| COP(=S)(OC)Oc1cc(Cl)c(Br)cc1Cl [Bromofos] | > 90 |

Same assay, conditions: rat, gh3-tre-luc cells, AC50 (uM) modified / 1000, Tox21_110001=Tox21_302174; viability, 1 nM T3 present, 24 h

| SMILES | CC50 at 24 h [µM] |
| --- | --- |
| COc1cc2c(cc1OC)[C@@]13CCN4CC5=CCO[C@H]6CC(=O)N2[C@H]1[C@H]6[C@H]5C[C@H]43 [Brucine] | > 90 |
